# Tested on: NCI-H929 multiple myeloma cells
# Test: Cell Titer-GLO (CTG) assay for proliferation of NCI-H929 cells
# Format: cell-based
# Conditions: Homo sapiens, 72 hours
# Protocol: 1. Experimental objective: To determine inhibitory activities of compounds on NCI-H929 multiple myeloma cells.
# NCI-H929 cells, purchased from Nanjing Cobioer Biotechnology Co., Ltd, were cultured in RPM11640 (Viva; C3010-0500) medium containing 10% fetal bovine serum (Viva, C04002-500) and 1% of penicillin-streptomycin at 37° C. with 5% of C02 and saturated humidity conditions.
# The cells in logarithmic growth phase were plated at 5000 cells per well of a 96-well plate and after overnight incubation, compounds at 0.00512 nM, 0.0256 nM, 0.128 nM, 0.64 nM, 3.2 nM, 16 nM, 80 nM, and 400 nM were dosed into the plate with each dose in 2 duplicate wells. Cells were incubated at 37° C., 5% CO2 for 72 hours. After the incubation, the plate was placed at room temperature for half an hour, and then 50 μL of Cell Titer-Glo® (Promega, G7573) was added. The plate was placed on a shaker for uniform mixing for 2 minutes and was placed in the dark at room temperature for 10 minutes. The luminance signal was measured using SpectraMax Paradigm (Molecular Devices).
# Cell activity inhibition rate (%)=1 00−(RLUcompound−RLUblank)/(RLUcontrol−RLUblank)×100%, where control refers to the 0.1% DMSO treatment group, and blank refers to the culture medium control. IC50 values and maximum inhibition rates of the compounds were calculated using a nonlinear regression function “Dose-Response-Inhibition” in Graphpad Prism 7.0.
row,Compound,IC50 [nM]
1,"Cn1c(-c2nccc(N3CCN(Cc4ccc(Cc5ccc6c7c(cccc57)C(=O)N6C5CCC(=O)NC5=O)cc4)CC3)n2)cnc1C(F)(F)F (stereo not drawn) [Example 61, 3-(6-(4-((4-(2-(1-methyl-2-(trifluoromethyl)-1H-imidazol-5-yl)pyrimidin-4-yl)piperazin-1-yl)methyl)benzyl)-2-oxobenzo[cd]indol-1(2H)-yl)piperidin-2,6-dione]",0.02
2,"O=C1CCC(N2C(=O)c3cccc4c(Cc5ccc(CN6CCN(c7cccc(-n8cnc(C(F)(F)F)n8)n7)CC6)cc5)ccc2c34)C(=O)N1 (stereo not drawn) [Example 62, 3-(2-oxo-6-(4-((4-(6-(3-(trifluoromethyl)-1H-1,2,4-triazol-1-yl)pyridin-2-yl)piperazin-1-yl)methyl)benzyl)benzo[cd]indol-1(2H)-yl)piperidin-2,6-dione]",0.07
3,"O=C1CCC(N2C(=O)c3cccc4c(Cc5ccc(CN6CCN(c7cccc(-c8nnc(C(F)(F)F)s8)n7)CC6)cc5)ccc2c34)C(=O)N1 (stereo not drawn) [Example 63, 3-(2-oxo-6-(4-((4-(6-(5-(trifluoromethyl)-1,3,4-thiadiazol-2-yl)pyridin-2-yl)piperazin-1-yl)methyl)benzyl)benzo[cd]indol-1(2H)-yl)piperidin-2,6-dione]",0.2
4,"O=C1CCC(N2C(=O)c3cccc4c(Cc5ccc(CN6CCN(c7ccnc(-c8cccnc8)n7)CC6)cc5)ccc2c34)C(=O)N1 (stereo not drawn) [Example 64, 3-(2-oxo-6-(4-((4-(2-(pyridin-3-yl)pyrimidin-4-yl)piperazin-1-yl)methyl)benzyl)benzo[cd]indol-1(2H)-yl)piperidin-2,6-dione]",0.02
5,"Cc1noc(C)c1-c1nccc(N2CCN(Cc3ccc(Cc4ccc5c6c(cccc46)C(=O)N5C4CCC(=O)NC4=O)cc3)CC2)n1 (stereo not drawn) [Example 65, 3-(6-(4-((4-(2-(3,5-dimethylisoxazol-4-yl)pyrimidin-4-yl)piperazin-1-yl)methyl)benzyl)-2-oxobenzo[cd]indol-1(2H)-yl)piperidin-2,6-dione]",0.03
6,"Cc1ncc(-c2ncc(F)c(N3CCN(Cc4ccc(Cc5ccc6c7c(cccc57)C(=O)N6C5CCC(=O)NC5=O)cc4)CC3)n2)s1 (stereo not drawn) [Example 67, 3-(6-(4-((4-(5-fluoro-2-(2-methylthiazol-5-yl)pyrimidin-4-yl)piperazin-1-yl)methyl)benzyl)-2-oxobenzo[cd]indol-1(2H)-yl)piperidin-2,6-dione]",0.07
7,"Cc1ncn(-c2ncc(F)c(N3CCN(Cc4ccc(Cc5ccc6c7c(cccc57)C(=O)N6C5CCC(=O)NC5=O)cc4)CC3)n2)n1 (stereo not drawn) [Example 68, 3-(6-(4-((4-(5-fluoro-2-(3-methyl-1H-1,2,4-triazol-1-yl)pyrimidin-4-yl)piperazin-1-yl)methyl)benzyl)-2-oxobenzo[cd]indol-1(2H)-yl)piperidin-2,6-dione]",0.02
8,"Cc1ncn(-c2nc(N3CCN(Cc4ccc(Cc5ccc6c7c(cccc57)C(=O)N6C5CCC(=O)NC5=O)cc4)CC3)cc(C(F)(F)F)n2)n1 (stereo not drawn) [Example 69, 3-(6-(4-((4-(2-(3-methyl-1H-1,2,4-triazol-1-yl)-6-(trifluoromethyl)pyrimidin-4-yl)piperazin-1-yl)methyl)benzyl)-2-oxobenzo[cd]indol-1(2H)-yl)piperidin-2,6-dione]",0.04
9,"Cc1nc(N2CCN(Cc3ccc(Cc4ccc5c6c(cccc46)C(=O)N5C4CCC(=O)NC4=O)cc3)CC2)cc(-n2cnc(C(F)(F)F)n2)n1 (stereo not drawn) [Example 70, 3-(6-(4-((4-(2-methyl-6-(3-(trifluoromethyl)-1H-1,2,4-triazol-1-yl)pyrimidin-4-yl)piperazin-1-yl)methyl)benzyl)-2-oxobenzo[cd]indol-1(2H)-yl)piperidin-2,6-dione]",0.1
10,"Cc1nc(N2CCN(Cc3ccc(Cc4ccc5c6c(cccc46)C(=O)N5C4CCC(=O)NC4=O)cc3)CC2)cc(-n2cc(C(F)(F)F)nn2)n1 (stereo not drawn) [Example 73, 3-(6-(4-((4-(2-methyl-6-(4-(trifluoromethyl)-1H-1,2,3-triazol-1-yl)pyrimidin-4-yl)piperazin-1-yl)methyl)benzyl)-2-oxobenzo[cd]indol-1(2H)-yl)piperidin-2,6-dione]",0.03
11,"O=C1CCC(N2C(=O)c3cccc4c(Cc5ccc(CN6CCN(c7cc(C(F)(F)F)nc(-n8cnc(Cl)c8)n7)CC6)cc5)ccc2c34)C(=O)N1 (stereo not drawn) [Example 74, 3-(6-(4-((4-(2-(4-chloro-1H-imidazol-1-yl)-6-(trifluoromethyl)pyrimidin-4-yl)piperazin-1-yl)methyl)benzyl)-2-oxobenzo[cd]indol-1(2H)-yl)piperidin-2,6-dione]",0.1
12,"N#Cc1cn(-c2nc(N3CCN(Cc4ccc(Cc5ccc6c7c(cccc57)C(=O)N6C5CCC(=O)NC5=O)cc4)CC3)cc(C(F)(F)F)n2)cn1 (stereo not drawn) [Example 75, 3-(6-(4-((4-(2-(4-cyano-1H-imidazol-1-yl)-6-(trifluoromethyl)pyrimidin-4-yl)piperazin-1-yl)methyl)benzyl)-2-oxobenzo[cd]indol-1(2H)-yl)piperidin-2,6-dione]",0.02

# The next lines start with the values.
row,IC50 [nM],Compound
1,0.1,"Cc1ncn(-c2cccc(N3CCN(Cc4ccc(COc5cccc6c5CN([C@H]5CCC(=O)NC5=O)C6=O)cc4)CC3)n2)n1 [Example 66, (S)-3-(4-((4-((4-(6-(3-methyl-1H-1,2,4-triazol-1-yl)pyridin-2-Vl)piperazin-1-yl)methyl)benzyl)oxy)-1-oxoisoindolin-2-yl)piperidin-2,6-dione]"
2,0.1,"Cc1nc(N2CCN(Cc3ccc(COc4cccc5c4CN([C@H]4CCC(=O)NC4=O)C5=O)cc3)CC2)cc(-n2cnc(C)n2)n1 [Example 71, (S)-3-(4-((4-((4-(2-methyl-6-(3-methyl-1H-1,2,4-triazol-1-yl)pyrimidin-4-yl)piperazin-1-yl)methyl)benzyl)oxy)-1-oxoisoindolin-2-yl)piperidin-2,6-dione]"
3,0.1,"Cc1nc(N2CCN(Cc3ccc(COc4cccc5c4CN([C@H]4CCC(=O)NC4=O)C5=O)cc3)CC2)cc(-n2cnc(C(F)(F)F)c2)n1 [Example 72, (S)-3-(4-((4-((4-(2-methyl-6-(4-(trifluoromethyl)-1H-imidazol-1-yl)pyrimidin-4-yl)piperazin-1-yl)methyl)benzyl)oxy)-1-oxoisoindolin-2-yl)piperidin-2,6-dione]"
4,0.1,"Cc1nc(N2CCN(Cc3ccc(Cc4ccc5c6c(cccc46)C(=O)N5C4CCC(=O)NC4=O)cc3)CC2)cc(-n2ncc(C(F)(F)F)n2)n1 (stereo not drawn) [Example 76, 3-(6-(4-((4-(2-methyl-6-(4-(trifluoromethyl)-2H-1,2,3-triazol-2-yl)pyrimidin-4-yl)piperazin-1-yl)methyl)benzyl)-2-oxobenzo[cd]indol-1(2H)-yl)piperidin-2,6-dione]"
5,0.1,"Cc1nc(N2CCN(C3CN(Cc4ccc(COc5cccc6c5CN([C@H]5CCC(=O)NC5=O)C6=O)cc4)C3)CC2)cc(-n2cnc(C)n2)n1 [Example 77, (S)-3-(4-((4-((3-(4-(2-methyl-6-(3-methyl-1H-1,2,4-triazol-1-yl)pyrimidin-4-yl)piperazin-1-yl)azetidin-1-yl)methyl)benzyl)oxy)-1-oxoisoindolin-2-yl)piperidin-2,6-dione]"
6,0.1,"Cc1nc(N2CCN(C3CN(Cc4ccc(COc5cccc6c5CN([C@H]5CCC(=O)NC5=O)C6=O)cc4)C3)CC2)cc(-n2cnc(C(F)(F)F)c2)n1 [Example 78, (S)-3-(4-((4-((3-(4-(2-methyl-6-(4-(trifluoromethyl)-1H-imidazol-1-yl)pyrimidin-4-yl)piperazin-1-yl)azetidin-1-yl)methyl)benzyl)oxy)-1-oxoisoindolin-2-yl)piperidin-2,6-dione]"

# From patent US20260272924A1, “ISOINDOLINE DERIVATIVE, BENZOINDOLE DERIVATIVE AND USE THEREOF” (SHANGHAI HELIOSON PHARMACEUTICAL CO., LTD., priority 2023, published 2026)
